Each structure is given as a SMILES string. Bounds are passed on as bounds.

The target of the experiment is T1, P-selectin/PSGL-1 interaction (Homo sapiens, UniProt P16109).
T1 construct: comprised of the lectin and epidermal growth factor-like (EGF) domains expressed in CHO cells; made in house; host or cells: CHO cells (P-LE)
T1 sequence (P16109 42-198): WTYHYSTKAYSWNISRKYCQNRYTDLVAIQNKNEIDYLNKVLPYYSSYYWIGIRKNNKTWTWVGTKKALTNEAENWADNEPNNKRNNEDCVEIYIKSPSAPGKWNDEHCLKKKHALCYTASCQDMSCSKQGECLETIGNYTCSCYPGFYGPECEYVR
Kind of experiment: Biacore P-Selectin/PSGL-1 Inhibition Assay (surface plasmon resonance). In kind it is binding. The conditions noted are these: 250 uM test compound, 500 nM P.LE, immobilized PSGL-1 19ek, 10% DMSO, pH 7.4. In outline: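 Biotinylated monomeric human PSGL-1 "19ek" on streptavidin chip (600–700 RU); compounds preincubated 1 h, then mixed with 500 nM P-LE (lectin-EGF, CHO-expressed) at 250 or 500 μM compound, 10% DMSO, HEPES buffer with 1 mM CaCl2/MgCl2, pH 7.4. SPR at 25 °C; percent binding inhibition from double-referenced signals.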
For orientation: inhibition means the drop in the measured response relative to a control, in per cent. A high value points to strong suppression. `O=C(O)c1c(O)c(C2(c3ccccc3)CC2)nc2c(-c3ccccc3)cccc12` [Compound 45, 3-hydroxy-8-phenyl-2-(1-Phenylcyclopropyl)quinoline-4-carboxylic acid] registered an inhibition at 250 µM of 37%.

Molecule `O=C(O)c1c(O)c(C2(c3ccccc3)CC2)nc2ccc(OC(F)(F)F)cc12` [Compound 29, 3-hydroxy-2-(1-phenylcyclopropyl)-6-(trifluoromethoxy)quinoline-4-carboxylic acid] displayed an inhibition at 250 µM of 10%.

`O=C(O)c1c(O)c(C2(c3ccc(F)cc3)CC2)nc2c3c(ccc12)CCCC3` [Compound 80, 2-(1-(4-fluorophenyl)cyclopropyl)-3-hydroxy-7,8,9,10-tetrahydrobenzo[h]quinoline-4-carboxylic acid] displayed an inhibition at 250 µM of 59%.

On to `Cc1cc(C(F)(F)F)c2nc(C3(c4ccccc4)CC3)c(O)c(C(=O)O)c2c1` [Compound 101, 3-hydroxy-6-methyl-2-(1-phenylcyclopropyl)-8-(trifluoromethyl)quinoline-4-carboxylic acid], for which the inhibition at 250 µM worked out at 40%.

With `Cc1cc(C(F)(F)F)c2nc(C3(c4ccc(Cl)cc4)CC3)c(O)c(C(=O)O)c2c1` [Compound 94, 2-(1-(4-chlorophenyl)cyclopropyl)-3-hydroxy-6-methyl-8-(trifluoromethyl)quinoline-4-carboxylic acid], testing at 250 µM gave an inhibition of 65%.

On to `O=C(O)c1c(O)c(C2(c3ccc(F)cc3)CC2)nc2ccc(Cl)cc12` [Compound 67, 6-chloro-2-(1-(4-fluorophenyl)cyclopropyl)-3-hydroxyquinoline-4-carboxylic acid], for which the inhibition at 250 µM is ≤ 10%.

In the case of `Cc1ccc(C2(c3nc4c(C)cccc4c(C(=O)O)c3O)CC2)cc1` [Compound 83, 8-methyl-2-(1-p-tolylcyclopropyl)-3-hydroxyquinoline-4-carboxylic acid], testing at 250 µM gave an inhibition of 12%.

Turning to `O=C(O)c1c(O)c(C2(c3ccc(Cl)cc3)CC2)nc2c(-c3ccccc3)cc(C(F)(F)F)cc12` [Compound 100, 2-(1-(4-chlorophenyl)cyclopropyl)-3-hydroxy-8-phenyl-6-(trifluoromethyl)quinoline-4-carboxylic acid], the inhibition at 250 µM is ≤ 10%.

With `Cc1ccc2nc(C3(c4ccccc4)CC3)c(O)c(C(=O)O)c2c1` [Compound 33, 3-hydroxy-6-methyl-2-(1-phenylcyclopropyl)quinoline-4-carboxylic acid], the inhibition at 250 µM was ≤ 10%.

For `CC(C)c1cccc2c(C(=O)O)c(O)c(C3(c4ccc(F)cc4)CC3)nc12` [Compound 62, 2-(1-(4-fluorophenyl)cyclopropyl)-3-hydroxy-8-isopropylquinoline-4-carboxylic acid], testing at 250 µM gave an inhibition of 67%.

The molecule `Cc1ccc(C2(c3nc4c(C(O)(C(F)(F)F)C(F)(F)F)cccc4c(C(=O)O)c3O)CC2)cc1` [Compound 85, 8-(1,1,1,3,3,3-hexafluoro-2-hydroxypropan-2-yl)-3-hydroxy-2-(1-p-tolylcyclopropyl)quinoline-4-carboxylic acid] showed an inhibition at 250 µM of 59%.

`O=C(O)c1c(O)c(C2(c3ccc(F)cc3)CC2)nc2c(Br)cccc12` [Compound 75, 8-bromo-2-(1-(4-fluorophenyl)cyclopropyl)-3-hydroxyquinoline-4-carboxylic acid]: the inhibition at 250 µM was ≤ 10%.

For `O=C(O)c1c(O)c(C2(c3ccc(C(F)(F)F)cc3)CC2)nc2c(C(F)(F)F)cccc12` [Compound 52, 3-hydroxy-8-(trifluoromethyl)-2-(1-(4-(trifluoromethyl)phenyl)cyclopropyl)quinoline-4-carboxylic acid], the inhibition at 250 µM worked out at 47%.

Regarding `O=C(O)c1c(O)c(C2(c3ccc(Cl)cc3)CC2)nc2c(C(F)(F)F)cc(-c3ccccc3)cc12` [Compound 96, 2-(1-(4-chlorophenyl)cyclopropyl)-3-hydroxy-6-phenyl-8-(trifluoromethyl)quinoline-4-carboxylic acid], the inhibition at 250 µM was ≤ 10%.

Regarding `O=C(O)c1c(O)c(C2(c3ccc(F)cc3)CC2)nc2c(C(F)(F)F)cccc12` [Compound 61, 2-(1-(4-fluorophenyl)cyclopropyl)-3-hydroxy-8-(trifluoromethyl)quinoline-4-carboxylic acid], testing at 250 µM gave an inhibition of 56%.

Turning to `CC(Cc1ccccc1)c1nc2c(C(F)(F)F)cccc2c(C(=O)O)c1O` (stereo not drawn) [Compound 132, 3-Hydroxy-2-(1-Phenylpropan-2-yl)-8-(trifluoromethyl)quinoline-4-carboxylic acid], testing at 250 µM gave an inhibition of 49%.

`O=C(O)c1c(O)c(C2(c3ccc(C(F)(F)F)cc3)CC2)nc2c(-c3ccccc3)cccc12` [Compound 92, 3-hydroxy-8-phenyl-2-(1-(4-(trifluoromethyl)phenyl)cyclopropyl)quinoline-4-carboxylic acid]: the inhibition at 250 µM is ≤ 10%.

`O=C(O)c1c(O)c(C2(c3ccc(Cl)cc3)CC2)nc2ccc(F)cc12` [Compound 17, 2-(1-(4-chlorophenyl)cyclopropyl)-6-fluoro-3-hydroxyquinoline-4-carboxylic acid]: the inhibition at 250 µM is ≤ 10%.

Take `Cc1ccc2c(C(=O)O)c(O)c(CC(C)c3ccccc3)nc2c1C` (stereo not drawn) [Compound 137, 3-Hydroxy-7,8-dimethyl-2-(2-phenylpropyl)quinoline-4-carboxylic acid]: the inhibition at 250 µM stood at 31%.

For `O=C(O)c1c(O)c(C2(c3ccc(F)cc3)CC2)nc2c(Cl)cccc12` [Compound 73, 8-chloro-2-(1-(4-fluorophenyl)cyclopropyl)-3-hydroxyquinoline-4-carboxylic acid], the inhibition at 250 µM was ≤ 10%.

The molecule `O=C(O)c1c(O)c(C2(c3ccc(F)cc3)CC2)nc2ccc(Br)cc12` [Compound 72, 6-bromo-2-(1-(4-fluorophenyl)cyclopropyl)-3-hydroxyquinoline-4-carboxylic acid] registered an inhibition at 250 µM of 12%.

Molecule `CC(C)C(c1ccccc1)c1nc2c(C(F)(F)F)cccc2c(C(=O)O)c1O` (stereo not drawn) [Compound 129, 3-Hydroxy-2-(2-methyl-1-phenylpropyl)-8-(trifluoromethyl)quinoline-4-carboxylic acid] had an inhibition at 250 µM of 60%.

`CCC(c1ccccc1)c1nc2c(C(F)(F)F)cccc2c(C(=O)O)c1O` (stereo not drawn) [Compound 126, 3-Hydroxy-2-(1-phenylpropyl)-8-(trifluoromethyl)quinoline-4-carboxylic acid]: at 250 µM the inhibition was 61%.

For `O=C(O)c1c(O)c(C2(c3ccc(Cl)cc3)CC2)nc2ccccc12` [Compound 8, 2-(1-(4-chlorophenyl)cyclopropyl)-3-hydroxyquinoline-4-carboxylic acid], the inhibition at 250 µM was ≤ 10%.

On to `CC(C)c1cccc2c(C(=O)O)c(O)c(CC(C)c3ccccc3)nc12` (stereo not drawn) [Compound 136, 3-Hydroxy-8-isopropyl-2-(2-phenylpropyl)quinoline-4-carboxylic acid], for which the inhibition at 250 µM amounted to 64%.

`Cc1ccc2c(C(=O)O)c(O)c(C(C)(C)c3ccc(Cl)cc3)nc2c1C` [Compound 121, 2-(2-(4-Chlorophenyl)propan-2-yl)-3-hydroxy-7,8-dimethylquinoline-4-carboxylic acid] gave an inhibition at 250 µM of 56%.

In the case of `O=C(O)c1c(O)c(C2(c3ccccc3)CC2)nc2ccc(C(O)(C(F)(F)F)C(F)(F)F)cc12` [Compound 48, 6-(1,1,1,3,3,3-hexafluoro-2-hydroxypropan-2-yl)-3-hydroxy-2-(1-phenylcyclopropyl)quinoline-4-carboxylic acid], the inhibition at 250 µM is ≤ 10%.

On to `CC(C)c1ccc2nc(C3(c4ccc(Cl)cc4)CC3)c(O)c(C(=O)O)c2c1` [Compound 25, 2-(1-(4-chlorophenyl)cyclopropyl)-3-hydroxy-6-isopropylquinoline-4-carboxylic acid], for which 250 µM produced 14% inhibition.

On to `Cc1ccc2c(C(=O)O)c(O)c(C(C)Cc3ccccc3)nc2c1C` (stereo not drawn) [Compound 134, 3-Hydroxy-7,8-dimethyl-2-(1-phenylpropan-2-yl)quinoline-4-carboxylic acid], for which the inhibition at 250 µM was found to be 49%.

Consider `CC(Cc1nc2c(C(F)(F)F)cccc2c(C(=O)O)c1O)c1ccccc1` (stereo not drawn) [Compound 135, 3-Hydroxy-2-(2-phenylpropyl)-8-(trifluoromethyl)quinoline-4-carboxylic acid], for which the inhibition at 250 µM was determined as 46%.

For the molecule `CC(C)c1cccc2c(C(=O)O)c(O)c(C3(c4ccc(C(F)(F)F)cc4)CC3)nc12` [Compound 88, 3-hydroxy-8-isopropyl-2-(1-(4-(trifluoromethyl)phenyl)cyclopropyl)quinoline-4-carboxylic acid], the inhibition at 250 µM is 34%.

For the molecule `O=C(O)c1c(O)c(C2(c3ccccc3)CC2)nc2c(C(F)(F)F)cc(C(F)(F)F)cc12` [Compound 106], 250 µM produced 41% inhibition.

For `CCc1ccc2c(C(=O)O)c(O)c(C3(c4ccc(F)cc4)CC3)nc2c1` [Compound 66, 7-ethyl-2-(1-(4-fluorophenyl)cyclopropyl)-3-hydroxyquinoline-4-carboxylic acid], the inhibition at 250 µM was ≤ 10%.

Take `CCc1cc(C(F)(F)F)c2nc(C3(c4ccc(Cl)cc4)CC3)c(O)c(C(=O)O)c2c1` [Compound 98]: the inhibition at 250 µM was ≤ 10%.

With `CC(C)c1cccc2c(C(=O)O)c(O)c(C(c3ccccc3)C(C)C)nc12` (stereo not drawn) [Compound 130, 3-Hydroxy-8-isopropyl-2-(2-methyl-1-phenylpropyl)quinoline-4-carboxylic acid], the inhibition at 250 µM is 40%.

Consider `O=C(O)c1c(O)c(C2(c3ccsc3)CC2)nc2c(C(F)(F)F)cccc12` [Compound 59, 3-hydroxy-2-(1-(thiophen-3-yl)cyclopropyl)-8-(trifluoromethyl)quinoline-4-carboxylic acid], for which the inhibition at 250 µM was ≤ 10%.

These data come from patent publication US20080255192A1, “Methods and Compositions for Selectin Inhibition” (Wyeth, priority 2007, published 2008).
